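Each compound was tested at five concentrations against cells in 96-well plates for 48 hours. GI50: concentration for 50% inhibition of growth.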 Active and inactive are the calls of the source. Rule as the data show it: active = GI50 up to about 1.1 µM and inactive = higher.
Columns and labels:
Assay in all cases: DTP human tumour cell line panel, 48 h
786-0 = system: 786-0
DU-145 = system: DU-145
M14 = system: M14
SK-MEL-28 = system: SK-MEL-28
SR = system: SR
LOX IMVI = system: LOX IMVI
SF-268 = system: SF-268
SF-539 = system: SF-539
MDA-MB-231 = system: MDA-MB-231
HL-60 = system: HL-60
SK-MEL-2 = system: SK-MEL-2
UACC-257 = system: UACC-257
HCT-15 = system: HCT-15
NCI-H23 = system: NCI-H23
TK-10 = system: TK-10
ACHN = system: ACHN
SNB-19 = system: SNB-19
NCI-H522 = system: NCI-H522
HCC 2998 = system: HCC 2998
MDA-MB-435 = system: MDA-MB-435

Row | SMILES | GI50 (786-0) | GI50 (DU-145) | GI50 (M14) | GI50 (SK-MEL-28) | GI50 (SR) | GI50 (LOX IMVI) | GI50 (SF-268) | GI50 (SF-539) | GI50 (MDA-MB-231) | GI50 (HL-60) | GI50 (SK-MEL-2) | GI50 (UACC-257) | GI50 (HCT-15) | GI50 (NCI-H23) | GI50 (TK-10) | GI50 (ACHN) | GI50 (SNB-19) | GI50 (NCI-H522) | GI50 (HCC 2998) | GI50 (MDA-MB-435)
1 | CCCCC/C=C\C=C\CCCCCCCCC(=O)OC | > 100 µM (inactive) | > 100 µM (inactive) | > 100 µM (inactive) | > 100 µM (inactive) | > 100 µM (inactive) | 29.8 µM (inactive) | > 100 µM (inactive) | > 100 µM (inactive) | > 100 µM (inactive) | > 100 µM (inactive) | > 100 µM (inactive) | > 100 µM (inactive) | > 100 µM | > 100 µM (inactive) | > 100 µM (inactive) | > 100 µM (inactive) | > 100 µM (inactive) |  |  | 
2 | C=C1CC2C(=O)N(c3ccccc3)C(=O)C2CC1n1[nH]c(=O)n(Cc2ccccc2)c1=O (stereo unspecified) | > 100 µM (inactive) |  | > 100 µM (inactive) | > 100 µM (inactive) | > 100 µM (inactive) | > 100 µM (inactive) | > 100 µM (inactive) | > 100 µM (inactive) |  | > 100 µM (inactive) | > 100 µM (inactive) | > 100 µM (inactive) | > 100 µM | > 100 µM (inactive) | > 100 µM (inactive) | > 100 µM (inactive) | > 100 µM (inactive) | > 100 µM (inactive) | > 100 µM (inactive) | 
3 | COc1nc2c(c(=O)n1C)N[C@@H]1[C@@H](O)[C@H](O)CO[C@@H]1N2 | > 100 µM (inactive) | > 100 µM (inactive) | > 100 µM (inactive) | > 100 µM (inactive) | > 100 µM (inactive) | > 100 µM (inactive) | > 100 µM (inactive) | > 100 µM (inactive) |  | > 100 µM (inactive) | > 100 µM (inactive) | > 100 µM (inactive) | > 100 µM |  | > 100 µM (inactive) |  | > 100 µM (inactive) | 38.2 µM (inactive) |  | > 100 µM (inactive)
4 | COc1ccccc1NC(=O)C(=O)C1C(=O)Nc2ccccc2[S+]1[O-] (stereo unspecified) | > 100 µM (inactive) |  | > 100 µM (inactive) | > 100 µM (inactive) | > 100 µM (inactive) | > 100 µM (inactive) | > 100 µM (inactive) | > 100 µM (inactive) |  | > 100 µM (inactive) | > 100 µM (inactive) | > 100 µM (inactive) | > 100 µM | > 100 µM (inactive) | > 100 µM (inactive) | > 100 µM (inactive) | > 100 µM (inactive) | > 100 µM (inactive) | > 100 µM (inactive) | 
5 | O=c1/c(=C/c2ccco2)sc2nc3ccccc3n12 | > 10 µM (inactive) |  | > 10 µM (inactive) | > 10 µM (inactive) | > 10 µM (inactive) | > 10 µM (inactive) | > 10 µM (inactive) | > 10 µM (inactive) |  | > 10 µM (inactive) | > 10 µM (inactive) | > 10 µM (inactive) | > 10 µM | > 10 µM (inactive) | 50 µM (inactive) | > 10 µM (inactive) | > 10 µM (inactive) | > 10 µM (inactive) | > 10 µM (inactive) | 
6 | CCC1(OC(C)=O)C(=O)OCc2c1cc1n(c2=O)Cc2cc3ccccc3nc2-1 (stereo unspecified) | 0.564 µM (active) |  | 0.948 µM (active) | 14 µM (inactive) | 0.276 µM (active) | 1.01 µM (active) | 0.528 µM (active) | 0.568 µM (active) |  | 0.421 µM (active) | > 80 µM (inactive) | 4.45 µM (inactive) | 12.3 µM | 0.966 µM (active) | > 100 µM (inactive) | 0.455 µM (active) | 0.962 µM (active) | 1.19 µM (inactive) | 4.42 µM (inactive) | 
7 | CC(=O)OC[C@@H](COC(=O)/C=C/c1ccc(O)cc1)OC1OC(CO)C(O)C(O)C1O (stereo partly specified) | > 100 µM (inactive) | > 100 µM (inactive) | > 100 µM (inactive) | > 100 µM (inactive) | > 100 µM (inactive) | > 100 µM (inactive) | > 75.5 µM (inactive) | > 100 µM (inactive) |  | > 100 µM (inactive) | > 100 µM (inactive) | > 100 µM (inactive) | > 100 µM | > 100 µM (inactive) | > 100 µM (inactive) | > 100 µM (inactive) | > 100 µM (inactive) | > 100 µM (inactive) | > 100 µM (inactive) | 
8 | CC(=O)O[C@@H]1O[Si](C(C)(C)C)(C(C)(C)C)[C@H](C)[C@H]1C | 33.5 µM (inactive) |  | 38.6 µM (inactive) | > 100 µM (inactive) | > 100 µM (inactive) | 25.8 µM (inactive) |  | > 100 µM (inactive) | > 100 µM (inactive) | 21.9 µM (inactive) | > 100 µM (inactive) | > 100 µM (inactive) | 29.9 µM | > 100 µM (inactive) | > 100 µM (inactive) | > 100 µM (inactive) | > 100 µM (inactive) | 56.6 µM (inactive) | 92.7 µM (inactive) | 94.8 µM (inactive)
9 | COC(=O)C(C(=O)C(=O)Nc1ccccc1C)c1nc2ccc([N+](=O)[O-])cc2nc1O (stereo unspecified) | > 100 µM (inactive) |  | > 100 µM (inactive) | > 100 µM (inactive) | > 100 µM (inactive) | > 100 µM (inactive) | > 100 µM (inactive) | > 100 µM (inactive) |  | > 100 µM (inactive) | > 100 µM (inactive) | > 100 µM (inactive) | > 100 µM | > 100 µM (inactive) | > 100 µM (inactive) | > 100 µM (inactive) | > 100 µM (inactive) | 47.3 µM (inactive) | > 100 µM (inactive) | 
10 | CC1(C)OC(C[C@]2(C#N)C[C@H](CCl)OC(C)(C)O2)C[C@@H](C[C@]2(C#N)C[C@H](CCl)OC(C)(C)O2)O1 (stereo partly specified) | > 100 µM (inactive) |  | > 100 µM (inactive) | > 100 µM (inactive) | 20 µM (inactive) | > 100 µM (inactive) | > 100 µM (inactive) | > 100 µM (inactive) |  | > 100 µM (inactive) | > 100 µM (inactive) | 17.3 µM (inactive) | > 100 µM | > 100 µM (inactive) | > 100 µM (inactive) | > 100 µM (inactive) | > 100 µM (inactive) | > 100 µM (inactive) | > 100 µM (inactive) | 
11 | COC(=O)CC[C@@H](NC(=O)C(C)NC(=O)COC1C(O)C(COC(=O)CCCCCCCCCCNC(=O)c2ccc([N+](=O)[O-])c3[nH]c4cc(Br)ccc4c(=O)c23)OC(OCc2ccccc2)C1NC(C)=O)C(N)=O (stereo partly specified) | > 100 µM (inactive) |  | 61.4 µM (inactive) | > 100 µM (inactive) | 42.6 µM (inactive) | 44.2 µM (inactive) | 57.4 µM (inactive) | > 100 µM (inactive) |  | 23 µM (inactive) | 95.1 µM (inactive) | > 100 µM (inactive) | > 100 µM | > 100 µM (inactive) | > 100 µM (inactive) | > 100 µM (inactive) | 94 µM (inactive) | 32.7 µM (inactive) | 22.5 µM (inactive) | 
12 | COc1cc(CC2C(=O)OCC2[C@@H](OC(C)=O)c2ccc3c(c2)OCO3)c(Br)c(OC)c1OC (stereo partly specified) | > 100 µM (inactive) |  | 50.9 µM (inactive) | 73.3 µM (inactive) | 29.4 µM (inactive) | > 100 µM (inactive) | > 100 µM (inactive) | > 100 µM (inactive) |  | 35.6 µM (inactive) | 61.4 µM (inactive) | 69.5 µM (inactive) | 19.1 µM | 68.9 µM (inactive) | > 100 µM (inactive) | 99.8 µM (inactive) | > 100 µM (inactive) | 26.5 µM (inactive) | 98.4 µM (inactive) | 
13 | O=C([O-])C1([n+]2c(-c3ccccc3)cc(-c3ccccc3)cc2-c2ccccc2)CC1 | 57.1 µM (inactive) | > 100 µM (inactive) | 43.6 µM (inactive) | > 100 µM (inactive) | 76.2 µM (inactive) | 82.6 µM (inactive) | 42.3 µM (inactive) | > 100 µM (inactive) |  | 21.8 µM (inactive) |  | 25.4 µM (inactive) | > 100 µM | 86.9 µM (inactive) | > 100 µM (inactive) | > 100 µM (inactive) | 43.2 µM (inactive) | 54.7 µM (inactive) | 29.3 µM (inactive) | 19.2 µM (inactive)
14 | CN(C)C(=O)Oc1ccc(C(=S)Nc2ccccc2)cc1 | > 100 µM (inactive) | > 100 µM (inactive) | 41.2 µM (inactive) | 33.1 µM (inactive) | 46.8 µM (inactive) | 60.1 µM (inactive) | > 100 µM (inactive) | > 100 µM (inactive) |  | 21.6 µM (inactive) | > 100 µM (inactive) | 34.8 µM (inactive) | 97.5 µM | 28.6 µM (inactive) |  | > 100 µM (inactive) | > 100 µM (inactive) | 64.4 µM (inactive) | > 100 µM (inactive) | 42.3 µM (inactive)
15 | COC[C@H](Cc1ccccc1)/N=C/c1ccccc1 | > 100 µM (inactive) | > 100 µM (inactive) | > 100 µM (inactive) | > 100 µM (inactive) | > 100 µM (inactive) | > 100 µM (inactive) | > 100 µM (inactive) |  |  |  | > 100 µM (inactive) | > 100 µM (inactive) | > 100 µM | > 100 µM (inactive) | > 100 µM (inactive) | > 100 µM (inactive) | > 100 µM (inactive) | > 100 µM (inactive) | > 100 µM (inactive) | > 100 µM (inactive)
16 | COP1(=O)OCc2cnccc2O1 (stereo unspecified) | > 100 µM (inactive) |  | > 100 µM (inactive) | > 100 µM (inactive) | > 100 µM (inactive) | > 100 µM (inactive) | > 100 µM (inactive) | > 100 µM (inactive) | > 100 µM (inactive) |  | > 100 µM (inactive) | > 100 µM (inactive) | > 100 µM | > 100 µM (inactive) | > 100 µM (inactive) | > 100 µM (inactive) | > 100 µM (inactive) | > 100 µM (inactive) | > 100 µM (inactive) | > 100 µM (inactive)
